Biological target: ATP-dependent translocase ABCB1 (Homo sapiens, UniProt P08183)
Experiment: TP_TRANSPORTER: increase in Calcein intracellular accumulation (Calcein: 1 uM, Lomerizine: 10 uM) in K562/DOX cells
Type: functional, cell-based
Details: k562/adr

ATP-dependent translocase ABCB1, sequence (P08183 whole entry): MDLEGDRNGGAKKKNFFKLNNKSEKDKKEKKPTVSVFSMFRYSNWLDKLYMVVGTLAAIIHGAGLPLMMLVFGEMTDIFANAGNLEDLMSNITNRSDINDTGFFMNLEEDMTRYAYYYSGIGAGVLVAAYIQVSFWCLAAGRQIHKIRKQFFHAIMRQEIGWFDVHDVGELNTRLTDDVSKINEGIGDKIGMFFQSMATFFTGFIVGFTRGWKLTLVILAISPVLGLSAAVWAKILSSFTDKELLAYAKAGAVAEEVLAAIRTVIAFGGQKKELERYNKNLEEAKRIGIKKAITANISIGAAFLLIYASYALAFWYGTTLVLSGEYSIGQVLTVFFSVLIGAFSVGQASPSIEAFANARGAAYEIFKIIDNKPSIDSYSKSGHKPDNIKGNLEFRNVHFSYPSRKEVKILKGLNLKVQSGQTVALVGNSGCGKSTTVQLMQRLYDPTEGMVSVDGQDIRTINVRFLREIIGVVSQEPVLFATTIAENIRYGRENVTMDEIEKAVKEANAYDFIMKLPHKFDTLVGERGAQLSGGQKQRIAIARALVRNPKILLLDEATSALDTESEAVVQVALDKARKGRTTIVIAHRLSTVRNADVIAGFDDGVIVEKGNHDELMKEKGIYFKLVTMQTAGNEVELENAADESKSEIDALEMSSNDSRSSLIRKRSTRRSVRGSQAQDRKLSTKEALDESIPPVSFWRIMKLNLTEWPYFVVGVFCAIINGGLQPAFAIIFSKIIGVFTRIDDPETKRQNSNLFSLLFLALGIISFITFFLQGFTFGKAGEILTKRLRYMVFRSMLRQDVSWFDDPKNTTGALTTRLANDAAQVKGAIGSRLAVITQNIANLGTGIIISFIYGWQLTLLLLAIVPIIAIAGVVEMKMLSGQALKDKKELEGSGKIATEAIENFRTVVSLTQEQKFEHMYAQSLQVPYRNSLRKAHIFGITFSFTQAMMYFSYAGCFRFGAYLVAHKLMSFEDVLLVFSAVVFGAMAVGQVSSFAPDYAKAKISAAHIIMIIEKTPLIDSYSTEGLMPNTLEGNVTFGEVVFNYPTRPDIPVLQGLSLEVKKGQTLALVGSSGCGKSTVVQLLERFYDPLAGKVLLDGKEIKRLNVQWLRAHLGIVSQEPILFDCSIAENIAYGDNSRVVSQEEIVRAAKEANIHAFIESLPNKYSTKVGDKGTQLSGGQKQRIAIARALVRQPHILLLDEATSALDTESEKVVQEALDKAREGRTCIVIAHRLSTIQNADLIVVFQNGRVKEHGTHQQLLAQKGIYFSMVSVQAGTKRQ

COc1ccc(CN2CCN(C(c3ccc(F)cc3)c3ccc(F)cc3)CC2)c(OC)c1OC [LOMERIZINE]
Activity: inhibitor [+]

— ChEMBL document CHEMBL2073802, “Increase in doxorubicin cytotoxicity by inhibition of P-glycoprotein activity with lomerizine” (Biol Pharm Bull, 2001)
